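Protocol summary: plate cells (96-well), add compound at 5 concentrations, incubate 48 h, interpolate endpoints linearly. Abbreviation: GI50, concentration required for 50% inhibition of growth.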 Calls of active or inactive are those of the source. Cut-off read from the data, not from the text of the source: active = GI50 up to about 1.1 µM and inactive = higher.
Columns and labels:
Experiment in all cases: growth of human tumour cells (NCI), 48 h
[1] = system: DU-145
[2] = system: SW-620
[3] = system: SK-MEL-2
[4] = system: NCI-H522
[5] = system: A498
[6] = system: UACC-257
[7] = system: CAKI-1
[8] = system: NCI-H226
[9] = system: SK-MEL-28
[10] = system: U-251
[11] = system: MOLT-4
[12] = system: T47D
[13] = system: KM12
[14] = system: RPMI-8226
[15] = system: NCI/ADR-RES
[16] = system: 786-0
[17] = system: SF-539
[18] = system: HOP-62
[19] = system: HCT-116
[20] = system: HCT-15

Measured: GI50

COc1c(O)ccc2c1CN1CCc3cc4c(cc3C1C2)OCO4 (stereo not given)
21.6 µM: [20]
inactive: [1] 21.8 µM | [2] 29.9 µM | [3] 30.6 µM | [4] 7.43 µM | [5] 20.8 µM | [6] 31 µM | [7] 38.3 µM | [8] 44.5 µM | [9] 45.1 µM | [10] 29.6 µM | [11] 2.43 µM | [12] 20.9 µM | [13] 22.1 µM | [14] 32.4 µM | [15] 20.9 µM | [16] 23.9 µM | [17] 40 µM | [18] 36.4 µM | [19] 24 µM

O=[N+]([O-])c1ccc(C2=Nn3c(nnc3-c3ccc(Cl)cc3)SC2)o1
active: [4] 0.923 µM
inactive: [1] 19.2 µM | [2] 2.37 µM | [3] 10.5 µM | [5] 16.9 µM | [6] 7.38 µM | [7] 9.2 µM | [8] 16.4 µM | [9] 12.2 µM | [10] 14.1 µM | [11] 3.28 µM | [12] 5.45 µM | [13] 7.93 µM | [14] 2.1 µM | [15] 14.3 µM | [16] 10 µM | [17] 8.81 µM | [18] 9.12 µM | [19] 5.71 µM
2.33 µM: [20]

O=c1[nH]c2nccnc2c2c([N+](=O)[O-])cccc12
inactive: [1] > 100 µM | [2] > 100 µM | [3] > 100 µM | [4] 49.9 µM | [5] > 100 µM | [8] 95.5 µM | [9] > 100 µM | [10] > 100 µM | [11] > 100 µM | [12] 20.5 µM | [13] > 100 µM | [14] > 100 µM | [15] > 100 µM | [16] > 100 µM | [17] > 100 µM | [18] > 100 µM | [19] > 100 µM
> 100 µM: [20]

Nc1ccc(Oc2ccc(C34CC5C6CC7(c8ccc(Oc9ccc(N)cc9)cc8)CC5C(C3)C(C7)C6C4)cc2)cc1
inactive: [1] > 100 µM | [2] > 100 µM | [3] > 100 µM | [4] > 100 µM | [5] > 100 µM | [6] > 100 µM | [7] > 100 µM | [8] > 100 µM | [9] > 100 µM | [10] > 100 µM | [11] > 100 µM | [12] > 100 µM | [13] > 100 µM | [14] > 100 µM | [15] > 100 µM | [16] > 100 µM | [18] > 100 µM | [19] > 100 µM
> 100 µM: [20]

CSC(=S)Nc1cccc(C)n1
> 100 µM: [20]
inactive: [1] > 100 µM | [2] > 100 µM | [3] > 100 µM | [4] > 100 µM | [5] > 100 µM | [6] > 100 µM | [7] > 100 µM | [8] > 100 µM | [9] > 100 µM | [10] > 100 µM | [11] > 100 µM | [12] > 100 µM | [13] > 100 µM | [14] > 100 µM | [15] > 100 µM | [16] > 100 µM | [17] > 100 µM | [18] > 100 µM | [19] > 100 µM

O=C(CN1CCCCC1)CC(O)(C(F)(F)F)C(F)(F)F
inactive: [1] > 100 µM | [2] > 100 µM | [3] > 100 µM | [4] > 100 µM | [5] > 100 µM | [6] > 100 µM | [7] > 100 µM | [8] > 100 µM | [9] > 100 µM | [10] > 100 µM | [12] > 100 µM | [13] > 100 µM | [14] > 100 µM | [15] > 100 µM | [16] > 100 µM | [17] > 100 µM | [19] > 100 µM
> 100 µM: [20]

C[N+]12C=CC=C1C(N1CCCC1)c1scc(-c3ccc(Br)cc3)c12 (stereo not given)
> 90.8 µM: [20]
inactive: [1] 33.7 µM | [2] 41.2 µM | [3] 6.18 µM | [4] 1.64 µM | [5] 47.2 µM | [6] 7.36 µM | [7] > 62.5 µM | [8] 3.15 µM | [9] 19 µM | [10] 2.09 µM | [11] 15.8 µM | [12] 4.61 µM | [13] 12.1 µM | [14] 3.01 µM | [15] > 100 µM | [16] 16.7 µM | [17] 4 µM | [18] 14.8 µM | [19] 30.9 µM

O=C1N[C@@H](COc2ccc(/C=N/c3ccc(CCc4ccc(/N=C/c5ccc(OC[C@@H]6COC(=O)N6)cc5)cc4)cc3)cc2)CO1
inactive: [1] > 100 µM | [2] > 100 µM | [3] > 100 µM | [4] > 100 µM | [5] > 100 µM | [6] > 100 µM | [7] > 100 µM | [8] > 100 µM | [9] > 100 µM | [10] > 100 µM | [11] > 100 µM | [12] > 100 µM | [13] > 100 µM | [14] > 100 µM | [15] > 100 µM | [16] > 100 µM | [18] > 100 µM | [19] > 100 µM
> 100 µM: [20]

COC(=O)C12OC(C)(C(CC(=O)OC(C)(C)C)C1=O)C1C(=O)N(c3ccccc3)C(=O)C12 (stereo not given)
inactive: [1] > 100 µM | [2] > 100 µM | [3] > 100 µM | [4] > 100 µM | [5] > 100 µM | [6] > 100 µM | [7] > 100 µM | [8] > 100 µM | [9] > 100 µM | [10] > 100 µM | [11] > 100 µM | [12] > 100 µM | [13] > 100 µM | [14] > 100 µM | [15] > 100 µM | [16] > 100 µM | [18] > 100 µM | [19] > 100 µM
> 100 µM: [20]

CCC1=C(C)C(=O)N/C1=C\c1[nH]c(C)c([C@H](C)CCN)c1C
14.8 µM: [20]
active: [17] 0.0944 µM
inactive: [1] 16.9 µM | [2] 16.6 µM | [3] 18.7 µM | [4] 11.6 µM | [5] 18.6 µM | [7] 17.1 µM | [8] 17.1 µM | [9] 17.3 µM | [10] 15.1 µM | [11] 34 µM | [12] 9.98 µM | [13] 15.7 µM | [14] 25.6 µM | [15] 20 µM | [16] 14.7 µM | [18] 16.6 µM | [19] 14.5 µM

Nc1nc(S)c2c(N)n[nH]c2c1C(=O)Nc1ccccc1
> 100 µM: [20]
inactive: [1] > 100 µM | [2] > 100 µM | [3] > 100 µM | [4] > 100 µM | [5] > 100 µM | [6] > 100 µM | [7] > 100 µM | [8] > 100 µM | [9] > 100 µM | [10] > 100 µM | [11] > 100 µM | [12] > 100 µM | [13] 65.5 µM | [14] > 100 µM | [15] > 100 µM | [16] > 100 µM | [17] > 100 µM | [19] > 100 µM

CC1=C2C(=O)c3ccccc3C(=O)[C@H]2[C@H]2CCO[C@H]2O1
inactive: [1] 22.3 µM | [2] 21.1 µM | [3] 18.8 µM | [4] 16.3 µM | [5] > 100 µM | [6] 18.5 µM | [7] 22.2 µM | [8] 71 µM | [9] 24.3 µM | [10] 24.2 µM | [11] 30.5 µM | [12] 34.7 µM | [13] 24.5 µM | [14] 24.4 µM | [15] 27 µM | [16] 18.5 µM | [17] 22.1 µM | [18] 21.3 µM | [19] 23.8 µM
25.6 µM: [20]

C[N+](C)(C)C1=NNC2=Nc3ccccc3SC2=C1
inactive: [1] 27.6 µM | [2] 24.4 µM | [3] 14.1 µM | [4] 15.9 µM | [5] 26.4 µM | [6] 23 µM | [7] 32.3 µM | [8] 11.8 µM | [9] 19.4 µM | [10] 18.6 µM | [11] 13 µM | [12] 4.11 µM | [13] 23.9 µM | [14] 12.9 µM | [15] 16.1 µM | [16] 20.1 µM | [18] 22.8 µM | [19] 13.9 µM
17.5 µM: [20]

CN(C)C(=S)/N=c1\ssc(=S)n1Cc1ccccc1
active: [2] 0.201 µM | [3] 0.365 µM | [4] 0.063 µM | [5] 0.51 µM | [6] 0.43 µM | [7] 0.676 µM | [9] 0.661 µM | [10] 0.419 µM | [11] 0.569 µM | [13] 0.24 µM | [14] 0.785 µM | [15] 0.119 µM | [16] 0.361 µM | [17] 0.309 µM | [18] 0.546 µM | [19] 0.344 µM
0.237 µM: [20]
inactive: [1] 1.79 µM | [8] 2.61 µM | [12] 6.31 µM

CC(C)Cc1cc2c(cc1O)CCC1C2CC[C@@]2(C)C1CC[C@@H]2O (stereo not given in full)
inactive: [1] 9.2 µM | [2] 8.65 µM | [3] 6.71 µM | [4] 6.25 µM | [5] 18.3 µM | [6] 14.3 µM | [7] 16 µM | [8] 4.79 µM | [9] 10.6 µM | [10] 10.7 µM | [11] 3.5 µM | [12] 5.04 µM | [13] 6.55 µM | [14] 3.74 µM | [15] 6.14 µM | [16] 8.13 µM | [17] 19.5 µM | [18] 11.6 µM | [19] 6.05 µM
7.21 µM: [20]

Source: ChEMBL document CHEMBL1201862, “PubChem BioAssay data set” (2004)
